Measured values: patent US10960005B2, “Treatment of relapsed and/or refractory solid tumors and non-hodgkin's lymphomas” (CELGENE QUANTICEL RESEARCH, INC., priority 2016, dated 2021)

How the values were obtained:
[1] = 4-week oral gavage toxicity study with 4-week recovery in dogs (QW/BIW); settings: for mean AUC0-168 / mean Cmax: 0.375 mg base/kg/dose QW; for Steady state Cmax: 0.75 mg base/kg/dose QW
[2] = Hemodynamic and ECG parameters in anesthetized guinea pigs (IV infusion); settings: for mean plasma concentration at end of infusion: 10 minutes
Method: The effects of Compound Aon hemodynamic and ECG parameters were examined in anesthetized, male Dunkin Hartley guinea pigs. […] An escalating dose design was utilized in which doses were administered sequentially at 20-minute intervals. Animals were monitored throughout the experiment.

[3] = test system: Salmonella typhimurium TA98 and TA100 strains; experiment: Bacterial reverse mutation assay; format: cell-based; settings: up to 500 μg/mL; in presence and absence of S9
[4] = Pharmacokinetics after single IV and oral dose, CD-1 mice; format: in vivo; settings: Mouse, female
Method: (§1) AUClast=area under the plasma concentration-time curve from time zero to time of last measurable concentration; Cmax=maximum plasma concentration; F=oral bioavailability; hr=hour, PK=pharmacokinetic; SD=standard deviation; t1/2 z=apparent half-life of the terminal phase of the concentration-time curve; tmax=time of Cmax. In mouse, PK parameters were determined using composite plasma samples obtained from n=3animals/time point. In other species, PK parameters are from n=3 animals and values shown are mean and SD (in parentheses).

MS-1 hMCC xenograft = experiment: Efficacy in MS-1 hMCC xenograft (NSG mice); format: in vivo; settings: 5 mg/kg PO 5 on/2 off; head prints Day-15, TGI analysis on Day 36
MKL-1 hMCC cells = experiment: hMCC cell proliferation inhibition (2D, CellTiter-Glo), MKL-1; format: cell-based, human; settings: MKL-1, 2D format, 7 days
Method: MKL-1 hMCC cells were cultured in vitro in RPMI-1640 culture medium (Life Technologies, Carlsbad, Calif.) containing 100 units/mL penicdlin G sodium and 100 μg/mL streptomycin sulfate (cRPMI) supplemented with 10% fetal bovine serum (FBS). MS-1 hMCC cells were cultured in vitro in cRPMI supplemented with 20% FBS.
Four to six replicates were performed at each concentration.

[5] = Pharmacokinetics after single IV and oral dose, Cynomolgus monkeys; format: in vivo; settings: Monkey, male
Method: as §1

[6] = Exploratory toxicity study in dogs; format: in vivo; settings: 0.5 mg/kg/dose QOD
[7] = 0.375 mg base/kg/dose BIW, males, Day 22
[8] = Dogs, Day 1, 0.75 mg base/kg/dose oral once weekly, M
[9] = Dogs, Day 1, 1.5 mg base/kg/dose oral once weekly, F
[10] = Dogs, Day 1, 1.5 mg base/kg/dose oral once weekly, M
[11] = Dogs, Day 22, 0.375 mg base/kg/dose oral once weekly, F
[12] = Dogs, Day 22, 0.375 mg base/kg/dose oral once weekly, M
[13] = Dogs, Day 22, 0.375 mg base/kg/dose oral twice weekly, M
[14] = Dogs, Day 22, 0.75 mg base/kg/dose oral once weekly, F
[15] = Dogs, Day 22, 0.75 mg base/kg/dose oral once weekly, M
[16] = QW or BIW schedule, not determined
[17] = after escalating IV doses to 20 mg base/kg

## COc1ccc(-c2c(-c3ccc(C#N)c(F)c3)nc(N3CCC(N)CC3)n(C)c2=O)cc1F [Compound A]
[1]; 0.375 mg base/kg/dose BIW, females, Day 22
  Cmax: 19.0 ng/mL
[1]; [7]
  Cmax: 17.7 ng/mL
  mean AUC0-72: 307 ng·h/mL
[1]; females, Day 22
  mean AUC0-168: 269 ng·h/mL
  mean Cmax: 15.5 ng/mL
[1]; males, Day 22
  mean AUC0-168: 384 ng·h/mL
  mean Cmax: 21.9 ng/mL
[1]; females
  Steady state Cmax: 40.8 ng/mL
[1]; males
  Steady state Cmax: 36.2 ng/mL
[1]; Dogs, Day 1, 0.375 mg base/kg/dose oral once weekly, M
  AUC0-168: 503 ng·h/mL
[1]; Dogs, Day 1, 0.375 mg base/kg/dose oral twice weekly, M
  AUC0-72: 420 ng·h/mL
[1]; Dogs, Day 1, 0.75 mg base/kg/dose oral once weekly, F
  AUC0-168: 1180 ng·h/mL
[1]; [8]
  AUC0-168: 955 ng·h/mL
  Cmax: 34 ng/mL
[1]; [9]
  AUC0-168: 2680 ng·h/mL
  Cmax: 80.0 ng/mL
[1]; [10]
  AUC0-168: 2530 ng·h/mL
  Cmax: 90.6 ng/mL
[1]; [11]
  AUC0-168: 269 ng·h/mL
  Cmax: 15.5 ng/mL
[1]; [12]
  AUC0-168: 384 ng·h/mL
  Cmax: 21.9 ng/mL
[1]; Dogs, Day 22, 0.375 mg base/kg/dose oral twice weekly, F
  Cmax: 19.0 ng/mL
[1]; [13]
  AUC0-72: 307 ng·h/mL
  Cmax: 17.7 ng/mL
[1]; [14]
  AUC0-168: 719 ng·h/mL
  Cmax: 40.8 ng/mL
[1]; [15]
  AUC0-168: 645 ng·h/mL
  Cmax: 36.2 ng/mL
[1]; [16]
  HNSTD: < 0.375 mg base/kg/dose
  NOAEL: < 0.375 mg base/kg/dose
[1]; weekly oral 0.375-1.5 mg base/kg/dose, between study Days 13 and 23
  moribund euthanasia: 11 animals
[1]; ≥0.375 mg base/kg/dose, QW or BIW
  primary toxicities: mucosal ulceration, acute and/or subacute inflammation, and mucosal epithelial atrophy ofGI tract tissues
[2]; 15 mg base/kg IV
  mean plasma concentration at end of infusion: 4269 ng/mL
[2]; 20 mg base/kg IV
  mean plasma concentration at end of infusion: 6707 ng/mL
[2]; 20 mg base/kg IV, 9 minutes into 10-minute infusion
  maximum decrease in HR vs vehicle: 19%
[2]; [17]
  decrease in heart rate at end of monitoring period: 18%
  increase of QTcB interval at end of monitoring period: 10%
[3]
  mutagenicity: negative for mutagenicity
[4]; single IV 5 mg base/kg
  AUC∞: 2664 ng·h/mL
  CL: 32 mL/min/kg
  Vss: 7510 mL/kg
  t1/2,z: 3.8 h
[4]; single oral 10 mg base/kg
  % F: 38%
  Cmax: 510 ng/mL
  t1/2,z: 1.7 h
  tmax: 30 min
MS-1 hMCC xenograft
  Median Tumor Volumes Day-15: 129 mm^3
MKL-1 hMCC cells
  IC50: 18.4 nM
[5]; single IV 1 mg base/kg
  AUC∞: 983 ng·h/mL
  CL: 18 mL/min/kg
  Vss: 17119 mL/kg
  t1/2,z: 12.0 h
[5]; single oral 5 mg base/kg
  % F: 82%
  AUClast: 3618 ng·h/mL
  Cmax: 187 ng/mL
  t1/2,z: 12.9 h
  tmax: 6.0 h
[6]
  primary findings: Marked thrombocytopenia and acute hemorrhage in mesenteric and mandibular lymph nodes
